Patent US9055743B2, “Alpha, beta-unsaturated imines” (BAYER INTELLECTUAL PROPERTY GMBH, priority 2010, dated 2015)

How the values were obtained:
Format in all cases: in vivo
[1] = test system: Anopheles gambiae (homocygus kdr); test: Anopheles test (ANPHGB surface treatment); settings: exposition 30 minutes; for activity (mortality in %): 100 mg/m^2, 24 hours after contact; for knock-down activity: 100 mg/m^2, two hours after contact
Protocol: Anopheles Test (ANPHGB Surface Treatment) Solvent: Acetone
To produce a suitable preparation of active compound, the active compound is dissolved in acetone (2 mg/ml). The active compound preparation is pipetted onto a glazed tile and, after drying, adult mosquitoes of the species Anopheles gambiae (homocygus kdr) are placed onto the treated tile. The exposition time is 30 minutes.
Two hours after contact to the treated surface, the knock-down proportion of the test animals in % is determined.
24 hours after contact to the treated surface, the mortality in % is determined. Here, 100% means that all mosquitoes have been killed; 0% means that none of the mosquitoes has been killed.

[2] = test system: larvae of the mustard beetle (Phaedon cochleariae); test: Phaedon test (PHAECO spray treatment); settings: 500 g/ha, spray, after 7 days
Protocol: Phaedon Test ([…] Spray Treatment) Solvents: 78.0 parts by weight of acetone • • 1.5 parts by weight of dimethylformamide Emulsifier: 0.5 part by weight of alkylaryl polyglycol ether To produce a suitable preparation of active compound, 1 part by weight of active compound is mixed with the stated amounts of solvents and emulsifiers, and the concentrate is diluted with emulsifier-containing water to the desired concentration. Discs of Chinese cabbage leaves (Brassica pekinensis) are sprayed with an active compound preparation of the desired concentration and, after drying, populated with larvae of the mustard beetle (Phaedon cochleariae).

[3] = test system: caterpillars of the army worm (Spodoptera frugiperda); test: Spodoptera frugiperda test (SPODFR spray treatment); settings: 500 g/ha, spray, after 7 days
Protocol: Spodoptera frugiperda Test (SPODFR Spray Treatment) Solvents: 78.0 parts by weight of acetone • • 1.5 parts by weight of dimethylformamide Emulsifier: 0.5 part by weight of alkylaryl polyglycol ether
(§1) To produce a suitable preparation of active compound, 1 part by weight of active compound is mixed with the stated amounts of solvents and emulsifier, and the concentrate is diluted with emulsifier-containing water to the desired concentration.
Discs of maize leaves (Zea mays) are sprayed with an active compound preparation of the desired concentration and, after drying, populated with caterpillars of the army worm (Spodoptera frugiperda) besetzt.
After 7 days, the activity in % is determined. 100% means that all caterpillars have been killed; 0% means that none of the caterpillars have been killed.

[4] = test system: green peach aphid (Myzus persicae); test: Myzus test (MYZUPE spray treatment); settings: 500 g/ha, spray, after 6 days
Protocol: Myzus Test (MYZUPE Spray Treatment) Solvents: 78 parts by weight of acetone • • 1.5 parts by weight of dimethylformamide Emulsifier: 0.5 part by weight of alkylaryl polyglycol ether
as §1
Discs of Chinese cabbage leaves (Brassica pekinensis) which are infested by all stages of the green peach aphid (Myzus persicae) are sprayed with an active compound preparation of the desired concentration.
After 6 days, the activity in % is determined. 100% means that all aphids have been killed; 0% means that none of the aphids have been killed.

[5] = test system: greenhouse red spider mite (Tetranychus urticae); test: Tetranychus test; OP-resistant (TETRUR spray treatment); settings: 500 g/ha, spray, after 6 days
Protocol: Tetranychus Test; OP-Resistant (TETRUR Spray Treatment) Solvents: 78.0 parts by weight of acetone • • 1.5 parts by weight of dimethylformamide Emulsifier: 0.5 part by weight of alkylaryl polyglycol ether
as §1
Discs of bean leaves (Phaseolus vulgaris) infested by all stages of the greenhouse red spider mite (Tetranychus urticae) are sprayed with an active compound preparation of the desired concentration.
After 6 days, the activity in % is determined. 100% means that all spider mites have been killed; 0% means that none of the spider mites have been killed.

`Cc1ccc(N=C2C(=CSc3ccc(F)cc3)CCc3cc(C)cc(C)c32)cc1` [Example 1-77] was tested. Which “activity (mortality in %)” value [1] did it give?
The value was 80%.

With `Cc1cc(C)cc(N=C2C(=CSc3ccc(F)cc3)CCc3ccccc32)c1` [Example 1-67] as the compound, how does the “activity (beetle larvae killed)” value [2] read?
The value was 100%.

What about the “activity (caterpillars killed)” value [3] of the same compound?
The value was 100%.

What about the “activity (aphids killed)” value [4] of the same compound?
The value was 80%.

`COc1ccc(N=C2c3ccccc3CCC2C(Sc2ccccc2)Sc2ccccc2)cc1` (stereo not shown) [Example 2-3] was tested. Which “activity (mortality in %)” value [1] did it give?
Its value is 95%.

With `Cc1ccc(N=C2C(=CSc3ccc(F)cc3)C(C)c3cc(Cl)ccc32)cc1` (mixture of isomers) [Example 1-50] as the compound, how does the knock-down activity [1] read?
The knock-down activity was 85%.

`CC1=CC(C)(C)CC(=CSc2ccc(F)cc2)C1=Nc1ccc(C)cc1` [Example 1-93] was tested. Which “activity (spider mites killed)” value [5] did it give?
Its value is 90%.

With `Cc1ccc(N=C2C(=CSc3ccc(F)cc3)CCc3ccccc32)cc1C#N` [Example 1-68] as the compound, how does the “activity (beetle larvae killed)” value [2] read?
The value was 100%.

What about the “activity (caterpillars killed)” value [3] of the same compound?
The value was 100%.

And the “activity (spider mites killed)” value [5]?
Its value is 100%.

How did the “activity (caterpillars killed)” value [3] turn out when `Cc1ccc(N=C2C(=CSc3ccc(F)cc3)COc3cc(C(C)(C)C)ccc32)cc1` [Example 1-75] was run?
Its value is 100%.

Which “activity (spider mites killed)” value [5] does the source give for `COc1ccc(SC=C2CCc3ccccc3C2=Nc2ccc(C)cc2)cc1` [Example 1-73] here?
Its value is 80%.

Which results are given for `Cc1ccc(N=C2C(=CSc3ccc(F)cc3)CCc3ccccc32)cc1F` [Example 1-89]?
activity (beetle larvae killed) [2]: 100%; activity (caterpillars killed) [3]: 100%; activity (spider mites killed) [5]: 100%; knock-down activity [1]: 100%

How did the “activity (spider mites killed)” value [5] turn out when `Cc1ccc(N=C2CCC(OC(C)C)=CC2=CSc2ccc(F)cc2)cc1` (mixture of isomers) [Example 1-99] was run?
The value was 100%.

For `COc1ccc2c(c1C)OCC(=CSc1ccc(F)cc1)C2=Nc1ccc(C)cc1` [Example 1-52], which “activity (mortality in %)” value [1] is on record?
The value was 85%.

For `Cc1ccc(N=C2C(=CSC3CCCC3)CCc3ccccc32)cc1` [Example 1-87], which “activity (beetle larvae killed)” value [2] is on record?
The value was 100%.

And the “activity (aphids killed)” value [4]?
Its value is 100%.

And the “activity (spider mites killed)” value [5]?
The value was 100%.

And the knock-down activity [1]?
Its knock-down activity is 80%.

With `Cc1ccc(N=C2C(=CSc3ccc(F)cc3)CCc3cc(Cl)sc32)cc1` (mixture of isomers) [Example 1-91] as the compound, how does the “activity (beetle larvae killed)” value [2] read?
The value was 100%.

And the “activity (caterpillars killed)” value [3]?
Its value is 100%.

And the “activity (aphids killed)” value [4]?
Its value is 90%.

And the “activity (spider mites killed)” value [5]?
The value was 100%.

`CC1C(=CSc2ccccc2)C(=Nc2ccccc2)c2ccccc21` (mixture of isomers) [Example 1-13] was tested. Which “activity (beetle larvae killed)” value [2] did it give?
Its value is 100%.

And the “activity (caterpillars killed)” value [3]?
Its value is 100%.

And the “activity (aphids killed)” value [4]?
Its value is 100%.

What about the “activity (spider mites killed)” value [5] of the same compound?
Its value is 100%.

With `Cc1ccc(N=C2C(=CSc3ccc(F)cc3)COc3cc(-c4ccccc4)ccc32)cc1` [Example 1-24] as the compound, how does the “activity (aphids killed)” value [4] read?
Its value is 90%.

Which “activity (caterpillars killed)” value [3] does the source give for `Cc1ccc(N=C2C(=CSc3ccc(F)cc3)C(C)Oc3ccc(F)cc32)cc1` (stereo not shown) [Example 1-25] here?
The value was 100%.

Which “activity (beetle larvae killed)” value [2] does the source give for `Cc1ccc2c(c1)C(C)C(=CSc1ccc(F)cc1)C2=Nc1ccc(C)c(C)c1` (mixture of isomers) [Example 1-71] here?
The value was 100%.

What about the “activity (caterpillars killed)” value [3] of the same compound?
The value was 100%.

And the “activity (aphids killed)” value [4]?
Its value is 90%.

And the “activity (spider mites killed)” value [5]?
The value was 100%.

What about the knock-down activity [1] of the same compound?
The knock-down activity was 100%.

What does the source list for `C(Sc1ccccc1)=C1C(=Nc2ccccc2)c2ccccc2C1c1ccccc1` (mixture of isomers) [Example 1-19]?
activity (beetle larvae killed) [2]: 100%; activity (caterpillars killed) [3]: 100%; activity (aphids killed) [4]: 100%; activity (spider mites killed) [5]: 100%

With `Cc1ccc(N=C2c3ccccc3C(c3ccccc3)C2C(Sc2ccccc2)Sc2ccccc2)cc1` (mixture of isomers) [Example 2-9] as the compound, how does the “activity (beetle larvae killed)” value [2] read?
Its value is 100%.

What about the “activity (caterpillars killed)” value [3] of the same compound?
Its value is 100%.

What about the “activity (aphids killed)” value [4] of the same compound?
Its value is 100%.

What about the “activity (spider mites killed)” value [5] of the same compound?
Its value is 100%.

How did the “activity (caterpillars killed)” value [3] turn out when `Cc1ccc(N=C2C(=CSc3ccc(F)cc3)CCc3c(C)cc(C)cc32)cc1` [Example 1-30] was run?
Its value is 100%.

And the “activity (spider mites killed)” value [5]?
Its value is 80%.

Which “activity (caterpillars killed)” value [3] does the source give for `Cc1ccc(N=C2C(Br)=CC(C)(C)CC2=CSc2ccc(F)cc2)cc1` [Example 1-49] here?
Its value is 100%.

And the “activity (aphids killed)” value [4]?
The value was 90%.

`CC(C)c1ccc(N=C2C(=CSc3ccc(F)cc3)CCc3ccccc32)cc1` [Example 1-42] was tested. Which “activity (spider mites killed)” value [5] did it give?
Its value is 80%.

With `Cc1ccc(N=C2C(=CSc3cccc(F)c3)CCc3ccccc32)cc1` [Example 1-78] as the compound, how does the “activity (beetle larvae killed)” value [2] read?
Its value is 100%.

What about the “activity (caterpillars killed)” value [3] of the same compound?
The value was 100%.

What about the “activity (aphids killed)” value [4] of the same compound?
The value was 100%.

What about the “activity (spider mites killed)” value [5] of the same compound?
The value was 100%.

Which “activity (caterpillars killed)” value [3] does the source give for `Cc1ccc(N=C2c3cc(F)ccc3CCC2C(Sc2ccc(F)cc2)Sc2ccc(F)cc2)cc1` (stereo not shown) [Example 2-8] here?
Its value is 100%.

What about the “activity (spider mites killed)” value [5] of the same compound?
The value was 90%.

How did the “activity (caterpillars killed)” value [3] turn out when `Cc1cc(C)cc(N=C2C(=CSc3ccc(F)cc3)C(C)c3cc(C)ccc32)c1` (mixture of isomers) [Example 1-72] was run?
Its value is 100%.

`c1ccc(N=C2c3ccccc3C(c3ccccc3)C2C(Sc2ccccc2)Sc2ccccc2)cc1` (mixture of isomers) [Example 2-10] was tested. Which “activity (caterpillars killed)” value [3] did it give?
The value was 100%.

And the “activity (aphids killed)” value [4]?
The value was 100%.

And the “activity (spider mites killed)” value [5]?
The value was 100%.

With `Cc1ccc(N=C2C(=CSc3ccc(F)cc3)CCc3sc(Cl)cc32)cc1` [Example 1-66] as the compound, how does the “activity (beetle larvae killed)” value [2] read?
The value was 100%.

What about the “activity (caterpillars killed)” value [3] of the same compound?
Its value is 100%.

With `CCOC1=CC(=CSc2ccccc2)C(=Nc2ccc(C)cc2)CC1` (mixture of isomers) [Example 1-97] as the compound, how does the “activity (spider mites killed)” value [5] read?
The value was 100%.

What does the source list for `Cc1cccc(N=C2C(=CSc3ccccc3)C(C)c3ccccc32)c1` (mixture of isomers) [Example 1-12]?
activity (beetle larvae killed) [2]: 100%; activity (caterpillars killed) [3]: 100%; activity (spider mites killed) [5]: 100%

For `Cc1ccc(N=C2C(=CSc3ccccc3)CCC/C2=C\Sc2ccccc2)cc1` [Example 1-60, N-{2,6-Bis[(phenylsulphanyl)methylene]cyclohexylidene}-4-methylaniline], which pest or weed control at 500 g/ha ([2]; Phaedon cochleariae, 168 h, read-out: activity (beetle larvae killed)) is on record?
The pest or weed control at 500 g/ha was 100%.

And the pest or weed control at 500 g/ha ([3]; Spodoptera frugiperda, 168 h, read-out: activity (caterpillars killed))?
The pest or weed control at 500 g/ha was 100%.

`Cc1ccc(N=C2C(=CSc3ccc(F)cc3)CCc3c2ccc2ccccc32)cc1F` [Example 1-92] was tested. Which “activity (beetle larvae killed)” value [2] did it give?
Its value is 100%.

And the “activity (caterpillars killed)” value [3]?
Its value is 100%.

What about the “activity (spider mites killed)” value [5] of the same compound?
Its value is 100%.

Which “activity (caterpillars killed)” value [3] does the source give for `Cc1ccc(N=C2C=CC(C)(C)CC2=CSc2ccc(F)cc2)cc1C` [Example 1-64] here?
Its value is 100%.

What about the “activity (aphids killed)” value [4] of the same compound?
The value was 80%.

What about the “activity (spider mites killed)” value [5] of the same compound?
The value was 80%.

What about the knock-down activity [1] of the same compound?
The knock-down activity was 100%.

Which “activity (mortality in %)” value [1] does the source give for `Cc1ccc(N=C2c3ccc(F)cc3CCC2C(Sc2ccc(F)cc2)Sc2ccc(F)cc2)cc1` (stereo not shown) [Example 2-6] here?
The value was 95%.
